In patent publication US10538498B2, “1,3,4-oxadiazole sulfonamide derivative compounds as histone deacetylase 6 inhibitor, and the pharmaceutical composition comprising the same” (Chong Kun Dang Pharmaceutical Corp., priority 2015, dated 2020):

Target: T1, human recombinant HDAC6 (Homo sapiens, UniProt Q9UBN7)
T1 construct: purchased Calbiochem 382180
T1 sequence (Q9UBN7 1-1215): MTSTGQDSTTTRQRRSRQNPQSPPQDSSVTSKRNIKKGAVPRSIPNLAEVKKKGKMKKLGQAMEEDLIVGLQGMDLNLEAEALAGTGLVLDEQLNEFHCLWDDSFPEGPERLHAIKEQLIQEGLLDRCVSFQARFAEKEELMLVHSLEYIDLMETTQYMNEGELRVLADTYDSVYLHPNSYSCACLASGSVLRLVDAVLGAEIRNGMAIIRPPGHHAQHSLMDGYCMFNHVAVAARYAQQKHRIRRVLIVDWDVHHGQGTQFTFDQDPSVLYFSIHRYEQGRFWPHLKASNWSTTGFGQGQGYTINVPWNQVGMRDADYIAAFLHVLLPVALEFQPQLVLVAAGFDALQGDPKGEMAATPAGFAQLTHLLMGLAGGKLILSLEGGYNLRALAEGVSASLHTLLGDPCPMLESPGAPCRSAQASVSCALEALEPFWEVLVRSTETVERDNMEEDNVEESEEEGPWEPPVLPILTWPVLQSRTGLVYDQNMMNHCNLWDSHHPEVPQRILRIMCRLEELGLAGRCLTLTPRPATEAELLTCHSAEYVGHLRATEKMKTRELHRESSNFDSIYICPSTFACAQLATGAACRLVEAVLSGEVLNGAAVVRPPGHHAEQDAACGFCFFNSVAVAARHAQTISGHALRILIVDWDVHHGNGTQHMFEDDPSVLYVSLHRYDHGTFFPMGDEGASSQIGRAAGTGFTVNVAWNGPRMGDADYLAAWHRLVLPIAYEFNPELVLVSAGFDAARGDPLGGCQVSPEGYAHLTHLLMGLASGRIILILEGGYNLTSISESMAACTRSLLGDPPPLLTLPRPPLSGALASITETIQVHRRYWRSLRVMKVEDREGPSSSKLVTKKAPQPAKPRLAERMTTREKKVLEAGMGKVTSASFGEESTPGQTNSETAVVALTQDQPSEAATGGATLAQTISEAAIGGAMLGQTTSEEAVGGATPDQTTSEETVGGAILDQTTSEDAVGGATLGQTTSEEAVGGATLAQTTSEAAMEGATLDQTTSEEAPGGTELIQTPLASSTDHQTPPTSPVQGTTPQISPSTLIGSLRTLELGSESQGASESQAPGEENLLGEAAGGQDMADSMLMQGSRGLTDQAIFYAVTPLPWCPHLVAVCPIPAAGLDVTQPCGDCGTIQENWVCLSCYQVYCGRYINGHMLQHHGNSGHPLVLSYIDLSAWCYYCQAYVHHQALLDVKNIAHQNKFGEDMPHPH
Assay: HDAC6 enzyme activity inhibition assay (HDAC Fluorimetric Drug Discovery Kit)
Type: biochemical
Settings: for HDAC6 selectivity (fold): HDAC1 vs HDAC6; for IC50: same protocol as the HDAC1 enzyme activity test
Method in brief: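 Fluorescence (Ex 360, Em 460) after 30 min developer step; IC50 from dose-response. Reaction: 0.3 μg recombinant enzyme, 10 μM Fluor de Lys-SIRT1 substrate, 5-fold compound dilutions, 60 min at 30° C. Same protocol for both isoforms.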

O=S(=O)(C1CCOCC1)N(Cc1ccc(-c2nnc(C(F)F)o2)cn1)c1ccccc1 [Compound 11390, N-((5-(5-(difluoromethyl)-1,3,4-oxadiazol-2-yl)pyridin-2-yl)methyl)-N-phenyltetrahydro-2H-pyran-4-sulfonamide]
HDAC6 selectivity (fold): 7692 fold
IC50: 13 nM

CCS(=O)(=O)N(Cc1ccc(-c2nnc(C(F)F)o2)cc1F)c1cccc(CN2CCS(=O)(=O)CC2)c1 [Compound 11392, N-(4-(5-(difluoromethyl)-1,3,4-oxadiazol-2-yl)-2-fluorobenzyl)-N-(3-((1,1-dioxidothiomorpholino)methyl)phenyl)ethanesulfonamide]
HDAC6 selectivity (fold): 1000 fold
IC50: 100 nM

CCS(=O)(=O)N(Cc1ccc(-c2nnc(C(F)F)o2)cc1F)c1ccc(CN2CCN(C(C)=O)CC2)cc1 [Compound 11402, N-(4-((4-acetylpiperazin-1-yl)methyl)phenyl)-N-(4-(5-(difluoromethyl)-1,3,4-oxadiazol-2-yl)-2-fluorobenzyl)ethanesulfonamide]
HDAC6 selectivity (fold): 1316 fold
IC50: 76 nM

CCS(=O)(=O)N(Cc1ccc(-c2nnc(C(F)F)o2)cc1F)c1cccc(CN2CCN(C(C)=O)CC2)c1 [Compound 11403, N-(3-((4-acetylpiperazin-1-yl)methyl)phenyl)-N-(4-(5-(difluoromethyl)-1,3,4-oxadiazol-2-yl)-2-fluorobenzyl)ethanesulfonamide]
HDAC6 selectivity (fold): 1282 fold
IC50: 78 nM

CCS(=O)(=O)N(Cc1ccc(-c2nnc(C(F)F)o2)cc1F)c1cccc(CN2CCN(S(C)(=O)=O)CC2)c1 [Compound 11404, N-(4-(5-(difluoromethyl)-1,3,4-oxadiazol-2-yl)-2-fluorobenzyl)-N-(3-((4-(methylsulfonyl)piperazin-1-yl)methyl)phenyl)ethanesulfonamide]
HDAC6 selectivity (fold): 952 fold
IC50: 105 nM

CCS(=O)(=O)N(Cc1ccc(-c2nnc(C(F)F)o2)cc1F)c1cccc(CN2CCN(C)CC2)c1 [Compound 11405, N-(4-(5-(difluoromethyl)-1,3,4-oxadiazol-2-yl)-2-fluorobenzyl)-N-(3-((4-methylpiperazin-1-yl)methyl)phenyl)ethanesulfonamide]
HDAC6 selectivity (fold): 1493 fold
IC50: 67 nM

CCS(=O)(=O)N(Cc1ccc(-c2nnc(C(F)(F)F)o2)cc1F)c1cccc(CN2CCN(C(C)=O)CC2)c1 [Compound 11406, N-(3-((4-acetylpiperazin-1-yl)methyl)phenyl)-N-(2-fluoro-4-(5-(trifluoromethyl)-1,3,4-oxadiazol-2-yl)benzyl)ethanesulfonamide]
HDAC6 selectivity (fold): 435 fold
IC50: 230 nM

CCS(=O)(=O)N(Cc1ccc(-c2nnc(C(F)F)o2)cn1)c1ccc(F)c(Cl)c1 [Compound 11411, N-(3-chloro-4-fluorophenyl)-N-((5-(5-(difluoromethyl)-1,3,4-oxadiazol-2-yl)pyridin-2-yl)methyl)ethanesulfonamide]
HDAC6 selectivity (fold): 14286 fold
IC50: 7 nM

CCS(=O)(=O)N(Cc1ccc(-c2nnc(C(F)F)o2)cn1)c1ccccc1 [Compound 11412, N-((5-(5-(difluoromethyl)-1,3,4-oxadiazol-2-yl)pyridin-2-yl)methyl)-N-phenylethanesulfonamide]
HDAC6 selectivity (fold): 8333 fold
IC50: 12 nM

CS(=O)(=O)N1CCC(S(=O)(=O)N(Cc2ccc(-c3nnc(C(F)F)o3)cn2)c2ccccc2)CC1 [Compound 11426, N-((5-(5-(difluoromethyl)-1,3,4-oxadiazol-2-yl)pyridin-2-yl)methyl)-1-(methylsulfonyl)-N-phenylpiperidine-4-sulfonamide]
HDAC6 selectivity (fold): 7692 fold
IC50: 13 nM

CCS(=O)(=O)N(Cc1ccc(-c2nnc(C(F)F)o2)cc1F)c1cccc(C2CCN(C)CC2)c1 [Compound 11427, N-(4-(5-(difluoromethyl)-1,3,4-oxadiazol-2-yl)-2-fluorobenzyl)-N-(3-(1-methylpiperidin-4-yl)phenyl)ethanesulfonamide]
HDAC6 selectivity (fold): 352 fold
IC50: 284 nM

O=S(=O)(C1CCOC1)N(Cc1ccc(-c2nnc(C(F)F)o2)cn1)c1ccccc1 (stereo not shown) [Compound 11428, N-((5-(5-(difluoromethyl)-1,3,4-oxadiazol-2-yl)pyridin-2-yl)methyl)-N-phenyltetrahydrofuran-3-sulfonamide]
HDAC6 selectivity (fold): 6667 fold
IC50: 15 nM

CS(=O)(=O)N(Cc1ccc(-c2nnc(C(F)F)o2)cn1)c1ccc(F)c(Cl)c1 [Compound 11433, N-(3-chloro-4-fluorophenyl)-N-((5-(5-(difluoromethyl)-1,3,4-oxadiazol-2-yl)pyridin-2-yl)methyl)methanesulfonamide]
HDAC6 selectivity (fold): 8333 fold
IC50: 12 nM

CC(=O)N1CC(N2CCC(S(=O)(=O)N(Cc3ccc(-c4nnc(C(F)F)o4)cc3F)c3ccc(F)c(Cl)c3)CC2)C1 [Compound 11447, 1-(1-acetylazetidin-3-yl)-N-(3-chloro-4-fluorophenyl)-N-(4-(5-(difluoromethyl)-1,3,4-oxadiazol-2-yl)-2-fluorobenzyl)piperidine-4-sulfonamide]
HDAC6 selectivity (fold): 5556 fold
IC50: 18 nM

CS(=O)(=O)N1CC(N2CCC(S(=O)(=O)N(Cc3ccc(-c4nnc(C(F)F)o4)cc3F)c3ccc(F)c(Cl)c3)CC2)C1 [Compound 11448, N-(3-chloro-4-fluorophenyl)-N-(4-(5-(difluoromethyl)-1,3,4-oxadiazol-2-yl)-2-fluorobenzyl)-1-(1-(methylsulfonyl)azetidin-3-yl)piperidine-4-sulfonamide]
HDAC6 selectivity (fold): 4762 fold
IC50: 21 nM

CCS(=O)(=O)N(Cc1ccc(-c2nnc(C(F)F)o2)cc1F)c1cccc2c1cnn2C [Compound 11520, N-(4-(5-(difluoromethyl)-1,3,4-oxadiazol-2-yl)-2-fluorobenzyl)-N-(1-methyl-1H-indazol-4-yl)ethanesulfonamide]
HDAC6 selectivity (fold): 3125 fold
IC50: 32 nM

CCS(=O)(=O)N(Cc1ccc(-c2nnc(C(F)F)o2)cc1F)c1cccc2cnn(C)c12 [Compound 11522, N-(4-(5-(difluoromethyl)-1,3,4-oxadiazol-2-yl)-2-fluorobenzyl)-N-(1-methyl-1H-indazol-7-yl)ethanesulfonamide]
HDAC6 selectivity (fold): 4167 fold
IC50: 24 nM

CCS(=O)(=O)N(Cc1ccc(-c2nnc(C(F)F)o2)cn1)c1cccc2c1cnn2C [Compound 11539, N-((5-(5-(difluoromethyl)-1,3,4-oxadiazol-2-yl)pyridin-2-yl)methyl)-N-(1-methyl-1H-indazol-4-yl)ethanesulfonamide]
HDAC6 selectivity (fold): 4348 fold
IC50: 23 nM

CCS(=O)(=O)N(Cc1ccc(-c2nnc(C(F)F)o2)cn1)c1ccc2cnn(C)c2c1 [Compound 11540, N-((5-(5-(difluoromethyl)-1,3,4-oxadiazol-2-yl)pyridin-2-yl)methyl)-N-(1-methyl-1H-indazol-6-yl)ethanesulfonamide]
HDAC6 selectivity (fold): 10000 fold
IC50: 10 nM

CCS(=O)(=O)N(Cc1ccc(-c2nnc(C(F)F)o2)cn1)c1cccc2cnn(C)c12 [Compound 11541, N-((5-(5-(difluoromethyl)-1,3,4-oxadiazol-2-yl)pyridin-2-yl)methyl)-N-(1-methyl-1H-indazol-7-yl)ethanesulfonamide]
HDAC6 selectivity (fold): 6250 fold
IC50: 16 nM
